The subject of assay [1] is Aβ40 in conditioned medium of cells stably expressing Amyloid Precursor Protein (APP). Put plainly: In vitro BACE cell-based assay (Aβ40 in conditioned medium, sandwich ELISA).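 Further: compounds added as a dilution series, secreted peptide quantified by europium time-resolved fluorescence readout, potency fitted from percent of control versus compound concentration.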 The settings on record: Homo sapiens, HEK293, HEK cells, cell-based assay; read-out: HEK cell assay (IC50). For orientation: ELISA stands for enzyme-linked immunosorbent assay.
Assay [2] addresses Beta Secretase enzyme (BACE) (Homo sapiens, UniProt P56817). The assay is described as follows: In vitro enzymatic BACE FRET (fluorescence resonance energy transfer) assay.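 Further: fluorescence read after 1 h with 50 nM quenched peptide substrate spanning the BACE cleavage site, in pH 4.2 acetate buffer containing 10% DMSO and nonionic detergent.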 To be noted: BACE enzyme assay; read-out: BACE1 FRET assay (IC50). It is filed as biochemical.

Each structure is given as a SMILES string.

Chain of Beta Secretase enzyme (BACE) (P56817 46-501): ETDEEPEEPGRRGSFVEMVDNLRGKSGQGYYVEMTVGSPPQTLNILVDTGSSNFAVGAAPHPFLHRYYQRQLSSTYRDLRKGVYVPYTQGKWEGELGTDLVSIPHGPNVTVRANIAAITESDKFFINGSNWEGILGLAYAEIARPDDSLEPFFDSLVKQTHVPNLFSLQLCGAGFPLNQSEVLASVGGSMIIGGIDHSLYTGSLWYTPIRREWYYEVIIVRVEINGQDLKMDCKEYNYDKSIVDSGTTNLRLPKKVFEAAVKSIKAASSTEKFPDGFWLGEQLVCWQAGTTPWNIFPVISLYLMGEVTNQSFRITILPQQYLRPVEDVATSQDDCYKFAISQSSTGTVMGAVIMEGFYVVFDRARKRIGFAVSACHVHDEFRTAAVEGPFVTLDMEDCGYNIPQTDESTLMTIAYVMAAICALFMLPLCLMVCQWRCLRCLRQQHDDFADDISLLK

For the compound `C=CC[C@H](NC(=O)COC)[C@H](O)CN[C@H]1CC2(CCC2)Oc2cnc(CC(C)(C)C)cc21` [compound 120], the figures for the IC50 in assay [1] and in assay [2] were 343 nM and 745 nM, respectively.
Turning to `COCC(=O)N[C@@H](Cc1ccccc1)[C@H](O)CN[C@H]1CC2(CCC2)Oc2cnc(CC(C)(C)C)cc21` [compound 121], the IC50 (usually the concentration at which inhibition is half-maximal) in assay [1] was 102 nM; in assay [2] it was 22.1 nM.
As for `COCC(=O)N[C@@H](Cc1cccc(F)c1)[C@H](O)CN[C@H]1CC2(CCC2)Oc2cnc(CC(C)(C)C)cc21` [compound 122], the IC50 came out at 23.1 nM in assay [1] and 7.54 nM in assay [2].
For `COCC(=O)N[C@@H](Cc1ccc(F)cc1)[C@H](O)CN[C@H]1CC2(CCC2)Oc2ccc(CC(C)(C)C)nc21` [compound 123, N-((1S,2R)-3-(((4′S)-6′-(2,2-dimethylpropyl)-3′,4′-dihydrospiro[cyclobutane-1,2′-pyrano[3,2-b]pyridin]-4′-yl)amino)-1-((4-fluorophenyl)methyl)-2-hydroxypropyl)-2-(methyloxy)acetamide] the same measures were 3810 nM and 3720 nM.
Take `CC(=O)N[C@@H](Cc1ccc2c(c1)OCO2)[C@H](O)CN[C@H]1CC2(CCC2)Oc2c1cc(CC(C)(C)C)nc2Cl` [compound 124]: the IC50 in assay [1] came out at 114 nM; in assay [2], 28.6 nM.
For the compound `CNc1nc(CC(C)(C)C)cc2c1OC1(CCC1)C[C@@H]2NC[C@@H](O)[C@H](Cc1ccc2c(c1)OCO2)NC(=O)COC` [compound 125], the IC50 was found to be 13.3 nM in assay [1] and 57 nM in assay [2].
On to `CNc1nc(CC(C)(C)C)cc2c1OC1(CCC1)C[C@@H]2NC[C@@H](O)[C@H](Cc1ccc2c(c1)OCO2)NC(C)=O` [compound 126], for which the IC50 in assay [1] worked out at 9.1 nM; in assay [2], 48.4 nM.
On to `COCC(=O)N[C@@H](Cc1ccc2c(c1)OCO2)[C@H](O)CN[C@H]1CC2(CCC2)Oc2c1cc(CC(C)(C)C)nc2Cl` [compound 127, N-((1S,2R)-1-(1,3-benzodioxol-5-ylmethyl)-3-(((4′S)-8′-chloro-6′-(2,2-dimethylpropyl)-3′,4′-dihydrospiro[cyclobutane-1,2′-pyrano[2,3-c]pyridin]-4′-yl)amino)-2-hydroxypropyl)-2-(methyloxy)acetamide], for which the IC50 was determined as 67.8 nM in assay [1] and 25.5 nM in assay [2].
As to `CC(=O)N[C@@H](Cc1ccccc1)[C@H](O)CN[C@H]1CC2(CCC2)Oc2c1cc(CC(C)(C)C)nc2N1CCC1` [compound 128], the IC50 worked out at 16 nM in assay [1] and 33.2 nM in assay [2].
For `COCC(=O)N[C@@H](Cc1ccc2c(c1)OCO2)[C@H](O)CN[C@H]1CC2(CCC2)Oc2c1cc(CC(C)(C)C)nc2N` [compound 129] the same measures were 30.9 nM and 119 nM.
Consider `COCC(=O)N[C@@H](Cc1ccc2c(c1)OCO2)[C@H](O)CN[C@H]1CC2(CCC2)Oc2c1cc(CC(C)(C)C)nc2N1CCCC1` [compound 130], for which the results for the IC50 in assay [1] and in assay [2] were 55 nM and 54.1 nM, respectively.
For `CO[C@H](C)C(=O)N[C@@H](Cc1ccc2c(c1)OCO2)[C@H](O)CN[C@H]1CC2(CCC2)Oc2c1cc(CC(C)(C)C)nc2Cl` [compound 131], the IC50 came out at 376 nM in assay [1] and 26.8 nM in assay [2].
On to `CC(=O)NC(Cc1ccc2c(c1)OCO2)C(O)CNC1CC2(CC(C)C2)Oc2ncc(CC(C)C)cc21` [compound 132, N-((1S,2R)-1-(1,3-benzodioxol-5-ylmethyl)-2-hydroxy-3-(((1s,3R,4′S)-3-methyl-6′-(2-methylpropyl)-3′,4′-dihydrospiro[cyclobutane-1,2′-pyrano[2,3-b]pyridin]-4′-yl)amino)propyl)acetamide], for which the 50% inhibitory concentration (IC50) in assay [1] is 66 nM; in assay [2] it was 25.2 nM.
With `COCC(=O)NC(Cc1ccc2c(c1)OCO2)C(O)CNC1CC2(CC(C)C2)Oc2ncc(CC(C)C)cc21` [compound 133, N-((1S,2R)-1-(1,3-benzodioxol-5-ylmethyl)-2-hydroxy-3-(((1s,3R,4′S)-3-methyl-6′-(2-methylpropyl)-3′,4′-dihydrospiro[cyclobutane-1,2′-pyrano[2,3-b]pyridin]-4′-yl)amino)propyl)-2-(methyloxy)acetamide], the half-inhibitory concentration (IC50) in assay [1] was found to be 143 nM; in assay [2] it was 39.8 nM.
The like results for `COC(C)C(=O)NC(Cc1ccc2c(c1)OCO2)C(O)CNC1CC2(CC(C)C2)Oc2ncc(CC(C)C)cc21` [compound 134, (2R)—N-((1S,2R)-1-(1,3-benzodioxol-5-ylmethyl)-2-hydroxy-3-(((1s,3R,4′S)-3-methyl-6′-(2-methylpropyl)-3′,4′-dihydrospiro[cyclobutane-1,2′-pyrano[2,3-b]pyridin]-4′-yl)amino)propyl)-2-(methyloxy)propanamide] were, in that order, 192 nM and 27.2 nM.
Take `CO[C@H](C)C(=O)N[C@@H](Cc1ccc2c(c1)OCO2)[C@H](O)CN[C@H]1CC2(CCC2)Oc2c1cc(CC(C)(C)C)nc2N(C)C` [compound 135]: the IC50 in assay [1] worked out at 175 nM; in assay [2], 64.7 nM.
On to `CNc1nc(CC(C)(C)C)cc2c1OC1(CCC1)C[C@@H]2NC[C@@H](O)[C@H](Cc1ccc2c(c1)OCO2)NC(=O)[C@@H](C)OC` [compound 136], for which the figures for the IC50 in assay [1] and in assay [2] were 16.3 nM and 41.1 nM, respectively.
The like results for `CNc1nc(CC(C)(C)C)cc2c1OC1(CCC1)C[C@@H]2NC[C@@H](O)[C@H](Cc1ccc(F)cc1)NC(=O)[C@@H](C)OC` [compound 137] were, in that order, 57.5 nM and 82 nM.
The like results for `CNc1nc(CC(C)(C)C)cc2c1OC1(CCC1)C[C@@H]2N(C)C[C@@H](O)[C@H](Cc1ccc(F)cc1)NC(=O)[C@@H](C)OC` [compound 138] were, in that order, 162 nM and 178 nM.
In the case of `CNc1nc(CC(C)(C)C)cc2c1OC1(CCC1)C[C@@H]2NC[C@@H](O)[C@H](Cc1cccc(F)c1)NC(=O)[C@@H](C)OC` [compound 139], the IC50 in assay [1] was determined as 8.99 nM; in assay [2], 42 nM.
For `COCC(=O)N[C@@H](Cc1cccc(F)c1)[C@H](O)CN[C@H]1CC2(CCC2)Oc2c1cc(CC(C)(C)C)nc2OCC(F)(F)F` [compound 140, N-((1S,2R)-3-(((4′S)-6′-(2,2-dimethylpropyl)-8′-((2,2,2-trifluoroethyl)oxy)-3′,4′-dihydrospiro[cyclobutane-1,2′-pyrano[2,3-c]pyridin]-4′-yl)amino)-1-((3-fluorophenyl)methyl)-2-hydroxypropyl)-2-(methyloxy)acetamide], the values for the IC50 in assay [1] and in assay [2] were 115 nM and 7.75 nM, respectively.
`CO[C@H](C)C(=O)N[C@@H](Cc1ccc(F)cc1)[C@H](O)CN[C@H]1CC2(CCC2)Oc2c1cc(CC(C)(C)C)nc2NCC(F)(F)F` [compound 141, (2R)-N-((1S,2R)-3-(((4′S)-6′-(2,2-dimethylpropyl)-8′-((2,2,2-trifluoroethyl)amino)-3′,4′-dihydrospiro[cyclobutane-1,2′-pyrano[2,3-c]pyridin]-4′-yl)amino)-1-((4-fluorophenyl)methyl)-2-hydroxypropyl)-2-(methyloxy)propanamide]: the IC50 in assay [1] amounted to 2840 nM; in assay [2], 319 nM.
For the compound `COCC(=O)N[C@@H](Cc1ccc2c(c1)OCO2)[C@H](O)CN[C@H]1CC2(CCC2)Oc2c1cc(CC(C)(C)C)nc2NCC(F)(F)F` [compound 142], the IC50 in assay [1] was determined as 1950 nM; in assay [2], 350 nM.
As for `COCC(=O)N[C@@H](Cc1cccc(F)c1)[C@H](O)CN[C@H]1CC2(CCC2)Oc2c1cc(CC(C)(C)C)nc2NCC(F)(F)F` [compound 143], the IC50 stood at 314 nM in assay [1] and 19.5 nM in assay [2].
For `CC(=O)N[C@@H](Cc1ccc(F)cc1)[C@H](O)CN[C@H]1CC2(CCC2)Oc2c1cc(CC(C)(C)C)nc2NCC(F)(F)F` [compound 144] the same measures were 634 nM and 94.4 nM.
For `CNc1nc(CC(C)(C)C)cc2c1OC1(CCC1)C[C@@H]2N(C)C[C@@H](O)[C@H](Cc1ccc2c(c1)OCO2)NC(=O)[C@@H](C)OC` [compound 145] the same measures were 777 nM and 298 nM.
Consider `CC(=O)N[C@@H](Cc1ccc(F)cc1)[C@H](O)CN[C@H]1CC2(CCC2)Oc2ncc(OC(C)(F)F)cc21` [compound 146], for which the figures for the IC50 in assay [1] and in assay [2] were 1250 nM and 421 nM, respectively.
As to `CNc1nc(CC(C)(C)C)cc2c1OC1(CCC1)C[C@@H]2NC[C@@H](O)[C@H](Cc1ccc(F)cc1)NC(=O)COC` [compound 147], the values for the IC50 in assay [1] and in assay [2] were 23.2 nM and 49.5 nM, respectively.
For `CNc1nc(CC(C)(C)C)cc2c1OC1(CCC1)C[C@@H]2NC[C@@H](O)[C@H](Cc1cccc(F)c1)NC(=O)COC` [compound 148] the same measures were 6.54 nM and 38.7 nM.
On to `COCCNc1nc(CC(C)(C)C)cc2c1OC1(CCC1)C[C@@H]2NC[C@@H](O)[C@H](Cc1ccc(F)cc1)NC(C)=O` [compound 149, N-((1S,2R)-3-(((4′S)-6′-(2,2-dimethylpropyl)-8′-((2-(methyloxy)ethyl)amino)-3′,4-dihydrospiro[cyclobutane-1,2′-pyrano[2,3-c]pyridin]-4′-yl)amino)-1-((4-fluorophenyl)methyl)-2-hydroxypropyl)acetamide], for which the figures for the IC50 in assay [1] and in assay [2] were 27.2 nM and 47.9 nM, respectively.
The like results for `COCCNc1nc(CC(C)(C)C)cc2c1OC1(CCC1)C[C@@H]2NC[C@@H](O)[C@H](Cc1ccc(F)cc1)NC(=O)COC` [compound 150] were, in that order, 22.6 nM and 47.9 nM.
Regarding `CC(=O)N[C@@H](Cc1cccc(F)c1)[C@H](O)CN[C@H]1CC2(CCC2)Oc2ncc(OC(C)(F)F)cc21` [compound 151, N-((1S,2R)-3-(((4′S)-6′-((1,1-difluoroethyl)oxy)-3′,4′-dihydrospiro[cyclobutane-1,2′-pyrano[2,3-b]pyridin]-4′-yl)amino)-1-((3-fluorophenyl)methyl)-2-hydroxypropyl)acetamide], the IC50 in assay [1] turned out to be 84.1 nM; in assay [2] it was 20.5 nM.
The like results for `CC(F)(F)Oc1cnc2c(c1)[C@@H](NC[C@@H](O)[C@H](Cc1cccc(F)c1)NC(=O)[C@@H]1CCC(=O)O1)CC1(CCC1)O2` [compound 152] were, in that order, 33.6 nM and 10.6 nM.
